In ChEMBL document CHEMBL1201862, “PubChem BioAssay data set” (2004):
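Briefly, cells in 96-well plates were exposed to five compound concentrations for 48 h, and endpoints were estimated by linear interpolation. Abbreviation: GI50, concentration required for 50% inhibition of growth.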 Activity calls are given as the source filed them. No stated cut-off is given here; in the data, active = GI50 up to about 1.1 µM and inactive = higher.

What was measured:
Assay in all cases: DTP human tumour cell line panel, 48 h
SR = test system: SR
EKVX = test system: EKVX
HT-29 = test system: HT-29
COLO 205 = test system: COLO 205
T47D = test system: T47D
LOX IMVI = test system: LOX IMVI
HOP-62 = test system: HOP-62
SW-620 = test system: SW-620
MDA-MB-231 = test system: MDA-MB-231
DU-145 = test system: DU-145
HCT-116 = test system: HCT-116
MDA-N = test system: MDA-N
HCT-15 = test system: HCT-15
MCF7 = test system: MCF7
SF-295 = test system: SF-295
NCI-H226 = test system: NCI-H226
K562 = test system: K562
ACHN = test system: ACHN
SF-268 = test system: SF-268
KM12 = test system: KM12
SK-MEL-5 = test system: SK-MEL-5
MDA-MB-435 = test system: MDA-MB-435
RXF 393 = test system: RXF 393
TK-10 = test system: TK-10
SN12C = test system: SN12C
NCI-H23 = test system: NCI-H23
UO-31 = test system: UO-31
UACC-257 = test system: UACC-257
OVCAR-4 = test system: OVCAR-4
OVCAR-8 = test system: OVCAR-8
SF-539 = test system: SF-539
IGROV-1 = test system: IGROV-1
CCRF-CEM = test system: CCRF-CEM
Malme-3M = test system: Malme-3M
UACC-62 = test system: UACC-62
OVCAR-5 = test system: OVCAR-5
HL-60 = test system: HL-60
M14 = test system: M14
MOLT-4 = test system: MOLT-4
A549 = test system: A549
SNB-75 = test system: SNB-75
OVCAR-3 = test system: OVCAR-3
RPMI-8226 = test system: RPMI-8226
NCI-H460 = test system: NCI-H460
A498 = test system: A498
NCI-H522 = test system: NCI-H522
HOP-92 = test system: HOP-92
HCC 2998 = test system: HCC 2998
SNB-19 = test system: SNB-19
Hs-578T = test system: Hs-578T
SK-MEL-2 = test system: SK-MEL-2
CAKI-1 = test system: CAKI-1
U-251 = test system: U-251
NCI/ADR-RES = test system: NCI/ADR-RES
PC-3 = test system: PC-3
SK-MEL-28 = test system: SK-MEL-28
786-0 = test system: 786-0
SK-OV-3 = test system: SK-OV-3

NNc1c(C(N)=O)c2c(N)ncnc2n1C1OC(CO)C(O)C1O (stereo unspecified)
GI50 (SR): < 0.01 µM (active) | GI50 (EKVX): 0.078 µM (active) | GI50 (HT-29): 0.0198 µM (active) | GI50 (COLO 205): 0.0129 µM (active) | GI50 (T47D): < 0.01 µM (active) | GI50 (LOX IMVI): 0.0112 µM (active) | GI50 (HOP-62): 0.0196 µM (active) | GI50 (SW-620): < 0.01 µM (active) | GI50 (MDA-MB-231): 0.0255 µM (active) | GI50 (DU-145): < 0.01 µM (active) | GI50 (HCT-116): 0.0119 µM (active) | GI50 (MDA-N): 0.0261 µM (active) | GI50 (HCT-15): 0.0175 µM | GI50 (MCF7): 0.0171 µM (active) | GI50 (SF-295): 0.233 µM (active) | GI50 (NCI-H226): 0.0536 µM (active) | GI50 (K562): 0.0451 µM (active) | GI50 (ACHN): 0.0107 µM (active)

O=[N+]([O-])c1ccc2c(c1)S(=O)(=O)N1Cc3ccccc3CCN21
GI50 (SF-268): 40.7 µM (inactive) | GI50 (KM12): > 100 µM (inactive) | GI50 (SR): > 100 µM (inactive) | GI50 (SK-MEL-5): > 100 µM (inactive) | GI50 (MDA-MB-435): > 100 µM (inactive) | GI50 (EKVX): 13.3 µM (inactive) | GI50 (HT-29): > 100 µM (inactive) | GI50 (RXF 393): > 100 µM (inactive) | GI50 (COLO 205): > 100 µM (inactive) | GI50 (TK-10): > 100 µM (inactive) | GI50 (SN12C): > 100 µM (inactive) | GI50 (NCI-H23): > 100 µM (inactive) | GI50 (UO-31): > 100 µM (inactive) | GI50 (LOX IMVI): > 100 µM (inactive) | GI50 (UACC-257): 29.1 µM (inactive) | GI50 (OVCAR-4): > 100 µM (inactive) | GI50 (HOP-62): > 100 µM (inactive) | GI50 (OVCAR-8): > 100 µM (inactive) | GI50 (SW-620): > 100 µM (inactive) | GI50 (SF-539): 54.5 µM (inactive) | GI50 (MDA-MB-231): > 100 µM (inactive) | GI50 (DU-145): > 100 µM (inactive) | GI50 (IGROV-1): > 100 µM (inactive) | GI50 (CCRF-CEM): > 100 µM (inactive) | GI50 (Malme-3M): > 100 µM (inactive) | GI50 (UACC-62): > 100 µM (inactive) | GI50 (OVCAR-5): > 100 µM (inactive) | GI50 (HL-60): > 100 µM (inactive) | GI50 (M14): > 100 µM (inactive) | GI50 (HCT-116): > 100 µM (inactive) | GI50 (MOLT-4): > 100 µM (inactive) | GI50 (A549): > 100 µM (inactive) | GI50 (SNB-75): 59.3 µM (inactive) | GI50 (OVCAR-3): 48.8 µM (inactive) | GI50 (RPMI-8226): > 100 µM (inactive) | GI50 (HCT-15): > 100 µM | GI50 (NCI-H460): > 100 µM (inactive) | GI50 (MCF7): > 100 µM (inactive) | GI50 (A498): > 100 µM (inactive) | GI50 (SF-295): 27.1 µM (inactive) | GI50 (NCI-H522): > 100 µM (inactive) | GI50 (HOP-92): 62.2 µM (inactive) | GI50 (HCC 2998): > 100 µM (inactive) | GI50 (NCI-H226): > 100 µM (inactive) | GI50 (SNB-19): 35 µM (inactive) | GI50 (Hs-578T): 26.7 µM (inactive) | GI50 (SK-MEL-2): > 100 µM (inactive) | GI50 (CAKI-1): > 100 µM (inactive) | GI50 (U-251): 45.1 µM (inactive) | GI50 (K562): > 100 µM (inactive) | GI50 (NCI/ADR-RES): > 100 µM (inactive) | GI50 (ACHN): > 100 µM (inactive) | GI50 (PC-3): > 100 µM (inactive) | GI50 (SK-MEL-28): > 100 µM (inactive) | GI50 (786-0): 97.5 µM (inactive)

CCOC(=O)C1(C(=O)OCC)CCC(C(OC)OC)C(CC(=O)OC)C1 (stereo unspecified)
GI50 (SF-268): > 10 µM (inactive) | GI50 (SR): > 10 µM (inactive) | GI50 (SK-MEL-5): > 10 µM (inactive) | GI50 (MDA-MB-435): > 10 µM (inactive) | GI50 (RXF 393): > 10 µM (inactive) | GI50 (COLO 205): > 10 µM (inactive) | GI50 (NCI-H23): > 10 µM (inactive) | GI50 (T47D): > 10 µM (inactive) | GI50 (OVCAR-4): > 10 µM (inactive) | GI50 (HOP-62): > 10 µM (inactive) | GI50 (SW-620): > 10 µM (inactive) | GI50 (IGROV-1): > 10 µM (inactive) | GI50 (CCRF-CEM): > 10 µM (inactive) | GI50 (Malme-3M): > 10 µM (inactive) | GI50 (UACC-62): > 10 µM (inactive) | GI50 (HL-60): > 10 µM (inactive) | GI50 (M14): > 10 µM (inactive) | GI50 (MOLT-4): > 10 µM (inactive) | GI50 (A549): > 10 µM (inactive) | GI50 (SNB-75): > 10 µM (inactive) | GI50 (RPMI-8226): > 10 µM (inactive) | GI50 (SK-OV-3): > 10 µM (inactive) | GI50 (NCI-H460): > 10 µM (inactive) | GI50 (MCF7): > 10 µM (inactive) | GI50 (HOP-92): > 10 µM (inactive) | GI50 (SK-MEL-2): > 10 µM (inactive) | GI50 (CAKI-1): > 10 µM (inactive) | GI50 (U-251): > 10 µM (inactive) | GI50 (K562): > 10 µM (inactive) | GI50 (NCI/ADR-RES): > 10 µM (inactive) | GI50 (ACHN): > 10 µM (inactive) | GI50 (SK-MEL-28): > 10 µM (inactive) | GI50 (786-0): > 10 µM (inactive)
